{
  "source": "patent US20070122400A1",
  "about": "“Composition having liver function protecting effect” (priority 2003, published 2007)",
  "key": {"[1]": {"conditions": "rats, daily dosage of 1,200 mg/kg continuously for 52 weeks; cited from earlier work"}, "[2]": {"system": "liver dysfunction model using carbon tetrachloride", "experiment": "liver dysfunction model using carbon tetrachloride, plasma GPT activity", "assay_type": "in vivo, male SD rats", "conditions": "rats; for GPT activity in the plasma sample, relative to the control group: 100 mg/kg oral in soy oil about 17 h before 50% carbon tetrachloride 2.0 ml/kg i.p., plasma 24 hours after carbon tetrachloride, n=4; for GPT activity in the plasma, rank among the groups: 100 mg/kg oral, 24 hours after carbon tetrachloride, same tendency at 48 hours and 72 hours, control group highest", "description": "The effects of coenzyme Q10 on protecting liver functions from disorders and preventing liver dysfunctions were examined by establishing a liver dysfunction model using carbon tetrachloride. A soy oil solution of oxidized coenzyme Q10 or reduced coenzyme Q10 with approximately 2% of oxidized coenzyme Q10 was orally administered to male SD rats (6 weeks old) at a dosage of 100 mg/kg. About 16 hours after the administration, blood was collected from the jugular vein using heparin as an anticoagulant. After one hour, 50% carbon tetrachloride (product of Nacalai Tesque, Inc.)/olive oil (product of Wako Pure Chemical Industries, Ltd.) was intraperitoneally administered at a dosage of 2.0 ml/kg. Blood was collected 24 hours, 48 hours, and 72 hours after the administration of carbon tetrachloride. The collected blood samples were centrifuged to obtain plasma samples. The GPT activity of each plasma sample was measured using a kit, Transaminase CII-Test Wako (product of Wako Pure Chemical Industries, Ltd.)."}, "[3]": {"system": "Liver dysfunction induced by carbon tetrachloride", "conditions": "rats, intraperitoneal administration; cited from earlier work"}},
  "data": [
    {"smiles": "COC1=C(OC)C(=O)C(C/C=C(\\C)CC/C=C(\\C)CC/C=C(\\C)CC/C=C(\\C)CC/C=C(\\C)CC/C=C(\\C)CC/C=C(\\C)CC/C=C(\\C)CC/C=C(\\C)CCC=C(C)C)=C(C)C1=O", "note": "[Coenzyme Q10]", "values": [
      {"measurement": "toxic effects in chronic toxicity test", "setting": "[1]", "value": "no toxic effects"}
    ]},
    {"smiles": "COC1=C(OC)C(=O)C(C/C=C(\\C)CC/C=C(\\C)CC/C=C(\\C)CC/C=C(\\C)CC/C=C(\\C)CC/C=C(\\C)CC/C=C(\\C)CC/C=C(\\C)CC/C=C(\\C)CCC=C(C)C)=C(C)C1=O", "note": "[oxidized coenzyme Q10]", "values": [
      {"measurement": "GPT activity in the plasma sample, relative to the control group", "setting": "[2]", "value": "about 60 % of the control group"},
      {"measurement": "GPT activity in the plasma, rank among the groups", "setting": "[2]", "value": "the next highest"},
      {"measurement": "liver dysfunction induced by carbon tetrachloride", "setting": "[3]", "value": "suppressed"}
    ]},
    {"smiles": "COc1c(O)c(C)c(C/C=C(\\C)CC/C=C(\\C)CC/C=C(\\C)CC/C=C(\\C)CC/C=C(\\C)CC/C=C(\\C)CC/C=C(\\C)CC/C=C(\\C)CC/C=C(\\C)CCC=C(C)C)c(O)c1OC", "note": "[reduced coenzyme Q10]", "values": [
      {"measurement": "GPT activity in the plasma sample, relative to the control group", "setting": "[2]", "value": "about 25 % of the control group"},
      {"measurement": "GPT activity in the plasma, rank among the groups", "setting": "[2]", "value": "the lowest"}
    ]}
  ]
}
